The text below walks through data of a compilation of properties of binary mixtures (doi:10.1016/j.molliq.2014.05.027).

The nature of this data set: xn = mol fraction of the nth substance listed. As to conditions: 101 kPa.

`O` + CC(=O)[O-].Cn1cc[nH+]c1: the viscosity is, setting by setting: (293.15 K, x1 = 1) 1.002 mPa·s; (298.15 K, x1 = 1) 0.89 mPa·s; (303.15 K, x1 = 1) 0.797 mPa·s; (313.15 K, x1 = 1) 0.651 mPa·s.

For `CC(=O)[O-].Cn1cc[nH+]c1` + O, the viscosity came out at 8.2 mPa·s (293.15 K, x2 = 0); 6.93 mPa·s (298.15 K, x2 = 0); 5.76 mPa·s (303.15 K, x2 = 0.7993); 5.07 mPa·s (308.15 K, x2 = 0). This compound displayed an electrical conductivity (298.15 K, x1 = 0.002) of 0.522 S/m; an electrical conductivity (298.15 K, x1 = 0.0071) of 1.51 S/m; an electrical conductivity (298.15 K, x1 = 0.01) of 1.92 S/m; an electrical conductivity (298.15 K, x2 = 0) of 0.371 S/m; an electrical conductivity (298.15 K, x2 = 0.1092) of 0.433 S/m; an electrical conductivity (298.15 K, x2 = 0.2563) of 0.553 S/m. The electrical conductivity (298.15 K, x2 = 0.5026) was determined as 0.858 S/m; the electrical conductivity (298.15 K, x2 = 0.6515) came out at 1.21 S/m; the electrical conductivity (298.15 K, x2 = 0.8065) amounted to 2 S/m; the electrical conductivity (298.15 K, x2 = 0.8514) was determined as 2.52 S/m; the electrical conductivity (298.15 K, x2 = 0.9001) was 3.27 S/m; the electrical conductivity (298.15 K, x2 = 0.9252) came to 3.73 S/m.

By viscosity is commonly meant the internal friction of a fluid under shear. A low value points to easy flow.
